Assay results published in US6071917A, “N-benzenesulphonyl-L-proline derivatives as bradykinin B2 antagonists” (Fournier Industrie Et Sante, priority 1996, dated 2000).
Where a name gives a salt, the structure may show the parent alone.

Target: T1, guinea-pig B2 receptor (Cavia porcellus, UniProt O70526)
T1 construct: Ileum segments are isolated from male guinea-pigs; tissue Iffa Credo, l'Arbresle, France (supplier of the animals); host or cells: ileum membranes of male Dunkin-Hartley guinea-pigs
T1 sequence (O70526 1-372): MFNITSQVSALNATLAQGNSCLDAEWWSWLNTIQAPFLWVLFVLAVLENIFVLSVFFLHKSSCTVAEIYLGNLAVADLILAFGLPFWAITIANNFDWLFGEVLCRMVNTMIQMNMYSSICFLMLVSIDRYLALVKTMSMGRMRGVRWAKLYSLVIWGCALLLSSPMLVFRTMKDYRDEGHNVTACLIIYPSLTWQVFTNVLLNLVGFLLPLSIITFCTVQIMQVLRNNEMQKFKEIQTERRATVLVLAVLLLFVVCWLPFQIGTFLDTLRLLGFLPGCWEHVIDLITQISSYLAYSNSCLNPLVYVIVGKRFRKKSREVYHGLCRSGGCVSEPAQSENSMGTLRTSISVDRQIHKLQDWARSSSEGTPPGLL
Test: [3H]-bradykinin binding to guinea-pig ileum membranes
Conditions: test compound at 10^-6 M; [3H]-bradykinin 120 pM; 50 μg ileum membrane protein; 90 min at 20° C.; read-out: Activity (%): percentage inhibition of the binding of [3H]-bradykinin
Procedure: The following pharmacological test is used: Ileum segments are isolated from male guinea-pigs [of the Dunkin-Hartley strain (Iffa Credo, l'Arbresle, France)] and ground in the following TES buffer: TES 25 mM, 1,10-phenanthroline 1 mM (pH 6.8), bacitracin 140 μg/ml, BSA 1 g/l. The membranes are then isolated by centrifugation (18,000 rpm; 20 min; 4° C.). The binding studies are carried out in this TES buffer using [^3 H]-bradykinin (120 pM) and 50 μg of membrane protein per test (final volume 500 μl) with an equilibrium time of 90 min at 20° C. The percentage inhibition of the binding of [^3 H]-bradykinin is then determined in the presence of one of the test compounds according to the invention at a concentration of 10^-6 M.
The results obtained from these tests (shown as "activity") are collated in Table I below with reference to the Examples given in the description.

Cc1cc(C)c2cccc(OCc3c(Cl)ccc(S(=O)(=O)N4CCC[C@H]4C(=O)N4CCN(C(=O)COc5ccc(C(=N)N)cc5)CC4)c3Cl)c2n1 [Example 16, 1-[[3-[(2,4-Dimethylquinolin-8-yl)oxymethyl]-2,4-dichlorophenyl]sulfonyl]-2(S)-[[4-[2-[4-(aminoiminomethyl)phenoxyl]-1-oxoethyl]piperazin-1-yl]carbonyl]pyrrolidine dihydrochloride] was tested, and the inhibition at 1 µM was 100%.

Work on Cc1cc(C)c2cccc(OCc3c(Cl)ccc(S(=O)(=O)N4CCC[C@H]4C(=O)NCC4CCN(C(=O)COc5ccc(C(=N)N)cc5)CC4)c3Cl)c2n1 [Example 30, 1-[[3-[(2,4-Dimethylquinolin-8-yl)oxymethyl]-2,4-dichlorophenyl]sulfonyl]-N-[[1-[2-[4-(aminoiminomethyl)phenoxy]-1-oxoethyl]piperidin-4-yl]methyl]-2(S)-pyrrolidinecarboxamide bis(methanesulfonate)] yielded an inhibition at 1 µM of 99.3%.

Compound Cc1cc(C)c2cccc(OCc3c(Cl)ccc(S(=O)(=O)N4CCC[C@H]4C(=O)NC4CCN(C(=O)COc5ccc(C(=N)N)cc5)CC4)c3Cl)c2n1 [Example 28] has an inhibition at 1 µM of 98%.

With Cc1cc(C)c2cccc(OCc3c(Cl)ccc(S(=O)(=O)N4CCC[C@H]4C(=O)NCc4cccc(C(=N)N)c4)c3Cl)c2n1 [Example 2, 1-[[3-[(2,4-Dimethylquinolin-8-yl)oxymethyl]-2,4-dichlorophenyl]sulfonyl]-N-[3-(aminoiminomethyl)phenylmethyl]-2(S)-pyrrolidinecarboxamide dihydrochloride] the inhibition at 1 µM was 100%.

Cc1ccc2cccc(OCc3c(Cl)ccc(S(=O)(=O)N4CCC[C@H]4C(=O)N4CCN(C(=O)c5ccc(C(=N)N)cc5)CC4)c3Cl)c2n1 [Example 18, 1-[[3-[(2-Methylquinolin-8-yl)oxymethyl]-2,4-dichlorophenyl]sulfonyl]-2(S)-[[4-[4-(aminoiminomethyl)benzoyl]piperazin-1-yl]carbonyl]pyrrolidine dihydrochloride] showed an inhibition at 1 µM of 100%.

Compound Cc1ccc2cccc(OCc3c(Cl)ccc(S(=O)(=O)N4CCC[C@H]4C(=O)N4CCN(C(=O)COc5ccc(C(=N)N)cc5)CC4)c3Cl)c2n1 [Example 22, 1-[[3-[(2-Dimethylquinolin-8-yl)oxymethyl]-2,4-dichlorophenyl]sulfonyl]-2(S)-[4-[2-[4-(aminoiminomethyl)phenoxyl-1-oxoethyl]piperazin-1-yl]carbonyl]pyrrolidine dihydrochloride] has an inhibition at 1 µM of 100%.

Work on Cc1ccc2cccc(OCc3c(Cl)ccc(S(=O)(=O)N4CCC[C@H]4C(=O)N4CCN(C(=O)Cc5ccc(C(=N)N)cc5)CC4)c3Cl)c2n1 [Example 20, 1-[[3-[(2-Methylquinolin-8-yl)oxymethyl]-2,4-dichlorophenyl]sulfonyl]-2(S)-[[4-[2-[4-(aminoiminomethyl)phenyl-1-oxoethyl]piperazin-1-yl]carbonyl]pyrrolidinedihydrochloride] yielded an inhibition at 1 µM of 100%.

Cc1cc(C)c2cccc(OCc3c(Cl)ccc(S(=O)(=O)N4CCC[C@H]4C(=O)N4CCN(C(=O)Cc5ccc(C(=N)N)cc5)CC4)c3Cl)c2n1 [Example 14, 1-[[3-[(2,4-Dimethylquinolin-8-yl)oxymethyl]-2,4-dichlorophenyl]sulfonyl]-(S)-[[4-[2-[4-(aminoiminomethyl)phenyl]-1-oxoethyl]piperazin-1-yl]carbonyl]pyrrolidine dihydrochloride] gave an inhibition at 1 µM of 100%.

Compound Cc1ccc2cccc(OCc3c(Cl)ccc(S(=O)(=O)N4CCC[C@H]4C(=O)Nc4cccc(C(=N)N)c4)c3Cl)c2n1 [Example 10, 1-[[3-[(2-Methylquinolin-8-yl)oxymethyl]-2,4-dichlorophenyl]sulfonyl]-N-[3-(aminoiminomethyl)phenyl]-2(S)-pyrrolidinecarboxamide dihydrochloride] has an inhibition at 1 µM of 100%.

With Cc1cc(C)c2cccc(OCc3c(Cl)ccc(S(=O)(=O)N4CCC[C@H]4C(=O)NC4CCN(C(=O)c5ccc(C(=N)N)cc5)CC4)c3Cl)c2n1 [Example 26, 1-[[3-[(2,4-Dimethylquinolin-8-yl)oxymethyl]-2,4-dichlorophenyl]sulfonyl]-N-[1-[4-(aminoiminomethyl)benzoyl]piperidin-4-yl]-2(S)-pyrrolidinecarboxamide bis(methanesulfonate)] the inhibition at 1 µM was 100%.

Work on Cc1cc(C)c2cccc(OCc3c(Cl)ccc(S(=O)(=O)N4CCC[C@H]4C(=O)N4CCN(C(=O)c5ccc(C(=N)N)cc5)CC4)c3Cl)c2n1 [Example 12, 1-[[3-[(2,4-Dimethylquinolin-8-yl)oxymethyl]-2,4-dichlorophenyl]sulfonyl]-2(S)-[[4-[4-(aminoiminomethyl)benzoyl]piperazin-1-yl]carbonyl]pyrrolidine dihydrochloride] yielded an inhibition at 1 µM of 99.3%.

In the case of Cc1ccc2cccc(OCc3c(Cl)ccc(S(=O)(=O)N4CCC[C@H]4C(=O)NCc4ccc(C(=N)N)cc4)c3Cl)c2n1 [Example 8, 1-[[3-[(2-Methylquinolin-8-yl)oxymethyl]-2,4-dichlorophenyl]sulfonyl]-N-[4-(aminoiminomethyl)phenylmethyl]-2(S)-pyrrolidinecarboxamide dihydrochloride], the inhibition at 1 µM is reported as 96.6%.

For Cc1cc(C)c2cccc(OCc3c(Cl)ccc(S(=O)(=O)N4CCC[C@H]4C(=O)N(C)Cc4ccc(C(=N)N)cc4)c3Cl)c2n1 [Example 4, 1-[[3-[(2,4-Dimethylquinolin-8-yl)oxymethyl]-2,4-dichlorophenyl]sulfonyl]-N-methyl-N-[4-(aminoiminomethyl)phenylmethyl]-2(S)-pyrrolidinecarboxamide dihydrochloride], the inhibition at 1 µM was 97.8%.

In the case of Cc1cc(C)c2cccc(OCc3c(Cl)ccc(S(=O)(=O)N4CCC[C@H]4C(=O)NCc4ccc(C(=N)N)cc4)c3Cl)c2n1 [Example 6, 1-[[3-[(2,4-Dimethylquinolin-8-yl)oxymethyl]-2,4-dichlorophenyl]sulfonyl]-N-[4-(aminoiminomethyl)phenylmethyl]-2(S)-pyrrolidinecarboxamide bis(methanesulfonate)], the inhibition at 1 µM is reported as 100%.

Cc1ccc2cccc(OCc3c(Cl)ccc(S(=O)(=O)N4CCC[C@H]4C(=O)NC4CCN(C(=O)c5ccc(C(=N)N)cc5)CC4)c3Cl)c2n1 [Example 24] was tested, and the inhibition at 1 µM was 98.9%.
